Results taken from patent US20180117053A1, “The Method of Use for Inhibitors of Epidermal Growth Factor Receptor Variants II, III and VI” (Metastat, Inc., priority 2015, published 2018).

Legend:
[1] = biological target: T1, EGFR-viii (Homo sapiens, UniProt P00533, DELINS30-297G); test: PhosphoY1173-EGFR-viii in-cell ELISA in U87MG tumor cells engineered to express EGFR-viii; assay type: cell-based; settings: U87MG tumor cells expressing EGFR-viii; for activity against EGFR-viii: in words
T1 construct: expressed in transfected cells; host or cells: U87MG (ATCC), lentiviral infection, puromycin selection
Protocol: Data are expressed as EC50 and were determined using an in-cell ELISA kit (Pierce).

[2] = tested on: tumors expressing EGFR-viii; settings: clinical studies (Vivanco 2012, Reardon 2014); cited from earlier work

For `C=CC(=O)Nc1ccc2ncnc(Nc3ccc(OCc4cccc(F)c4)c(Cl)c3)c2c1` [AST-1306], the “potency against EGFR-viii relative to WZ4002, WZ8040, WZ3146, CO-1686 and AZD9291” value [1] was “at least ten-fold more potent” and the EC50 ([1]; in-cell ELISA, read-out: EC50 against EGFR-viii (phosphoY1173-EGFRviii)) was under 50 nM.
In the case of `C=CC(=O)Nc1cccc(Oc2nc(Nc3ccc(N4CCN(C)CC4)cc3)ncc2Cl)c1` [WZ3146], the “activity against EGFR-viii” value ([1]; in-cell ELISA) is reported as “weak activity”.
For `C=CC(=O)Nc1cccc(Nc2nc(Nc3ccc(N4CCN(C(C)=O)CC4)cc3OC)ncc2C(F)(F)F)c1` [CO-1686], the “activity against EGFR-viii” value ([1]; in-cell ELISA) was “weak activity”.
For `C=CC(=O)Nc1cccc(Sc2nc(Nc3ccc(N4CCN(C)CC4)cc3)ncc2Cl)c1` [WZ8040], the “activity against EGFR-viii” value ([1]; in-cell ELISA) was “weak activity”.
For `CS(=O)(=O)CCNCc1ccc(-c2ccc3ncnc(Nc4ccc(OCc5cccc(F)c5)c(Cl)c4)c3c2)o1` [Lapatinib, lapatinib], the “cancer growth inhibition in clinical studies” value [2] is given as “insignificant cancer growth inhibition”.
